This note sets out measurements from US20230051589A1, “COMPOUNDS AND COMPOSITIONS FOR TREATING CONDITIONS ASSOCIATED WITH NLRP ACTIVITY” (Novartis AG, priority 2018, published 2023).

In this test the test system is IL-1β production in PMA-differentiated THP-1 cells. The experiment in a line: IL-1β production in PMA-differentiated THP-1 cells stimulated with gramicidin (hTHP-1 assay, 2% fetal bovine serum; Procedures 1-3). The class given is cell-based, human. The settings on record: Table B3; hTHP-1 assay containing 2% fetal bovine serum, gramicidin stimulation, IL-1β readout; read-out: hTHP-1 IC50. The gist of the method:
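PMA-primed THP-1 cells (20 ng/ml PMA, 16-18 h) in RPMI with 2% FBS were pre-incubated with compounds for 1 h, from 100 μM downward in 3-fold steps (0.37% DMSO final), then stimulated with 5 μM gramicidin for 2 h. IL-1β in the supernatant was quantified by HTRF.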

The IC50 is the concentration at which inhibition is half-maximal. For the molecule `CC(NC1CCC1)c1ccc(S(N)(=O)=NC(=O)Nc2c3c(cc4c2CC4)CCC3)c(F)c1` (single isomer, unassigned) [Example 849, (S, S) or (R, S) -4-(1-(cyclobutylamino)ethyl)-2-fluoro-N′-((2,4,5,6-tetrahydro-1H-cyclobuta[f]inden-3-yl)carbamoyl)benzenesulfonimidamide], the IC50 was in the range of 5 to 30 µM. The value for `CC(NC1CCC1)c1ccc(S(N)(=O)=NC(=O)Nc2c3c(cc4c2CC4)CCC3)c(F)c1` (single isomer, unassigned) [Example 850, (R, S) or (S, S) -4-(1-(cyclobutylamino)ethyl)-2-fluoro-N′-((2,4,5,6-tetrahydro-1H-cyclobuta[f]inden-3-yl)carbamoyl)benzenesulfonimidamide] was 5 to 30 µM. In the case of `COC1CCc2c(csc2S(N)(=O)=NC(=O)Nc2c3c(cc4c2CCC4)CCC3)C1` (single isomer, unassigned) [Example 851, (R, R) or (S, R)-N′-((1,2,3,5,6,7-hexahydro-s-indacen-4-yl)carbamoyl)-5-methoxy-4,5,6,7-tetrahydrobenzo[c]thiophene-1-sulfonimidamide] it was 0.2 to 1 µM; in that of `COC1CCc2c(csc2S(N)(=O)=NC(=O)Nc2c3c(cc4c2CCC4)CCC3)C1` (single isomer, unassigned) [Example 852, (S, R) or (R, R)-N′-((1,2,3,5,6,7-hexahydro-s-indacen-4-yl)carbamoyl)-5-methoxy-4,5,6,7-tetrahydrobenzo[c]thiophene-1-sulfonimidamide], 1 to 5 µM. The value for `COC1CCc2c(csc2S(N)(=O)=NC(=O)Nc2c3c(cc4c2CCC4)CCC3)C1` (single isomer, unassigned) [Example 853, (R, S) or (S, S)-N′-((1,2,3,5,6,7-hexahydro-s-indacen-4-yl)carbamoyl)-5-methoxy-4,5,6,7-tetrahydrobenzo[c]thiophene-1-sulfonimidamide] was more than 30 µM; that for `COC1CCc2c(csc2S(N)(=O)=NC(=O)Nc2c3c(cc4c2CCC4)CCC3)C1` (single isomer, unassigned) [Example 854, (S, S) or (R, S)-N′-((1,2,3,5,6,7-hexahydro-s-indacen-4-yl)carbamoyl)-5-methoxy-4,5,6,7-tetrahydrobenzo[c]thiophene-1-sulfonimidamide] was 5 to 30 µM.

Consider `COC1CCc2csc(S(N)(=O)=NC(=O)Nc3c4c(cc5c3CCC5)CCC4)c2C1` (single isomer, unassigned) [Example 855, (R, S) or (S, S)-N′-((1,2,3,5,6,7-hexahydro-s-indacen-4-yl)carbamoyl)-6-methoxy-4,5,6,7-tetrahydrobenzo[c]thiophene-1-sulfonimidamide], for which the IC50 was more than 30 µM. In the case of `COC1CCc2csc(S(N)(=O)=NC(=O)Nc3c4c(cc5c3CCC5)CCC4)c2C1` (single isomer, unassigned) [Example 856, (S, S) or (R, S)-N′-((1,2,3,5,6,7-hexahydro-s-indacen-4-yl)carbamoyl)-6-methoxy-4,5,6,7-tetrahydrobenzo[c]thiophene-1-sulfonimidamide] it was more than 30 µM; in that of `COC1CCc2csc(S(N)(=O)=NC(=O)Nc3c4c(cc5c3CCC5)CCC4)c2C1` (single isomer, unassigned) [Example 857, (R, R) or (S, R)-N′-((1,2,3,5,6,7-hexahydro-s-indacen-4-yl)carbamoyl)-6-methoxy-4,5,6,7-tetrahydrobenzo[c]thiophene-1-sulfonimidamide], 1 to 5 µM. In the case of `COC1CCc2csc(S(N)(=O)=NC(=O)Nc3c4c(cc5c3CCC5)CCC4)c2C1` (single isomer, unassigned) [Example 858, (S, R) or (R, R)-N′-((1,2,3,5,6,7-hexahydro-s-indacen-4-yl)carbamoyl)-6-methoxy-4,5,6,7-tetrahydrobenzo[c]thiophene-1-sulfonimidamide] it was 5 to 30 µM.
